Measured values published in PubChem BioAssay (NCI).
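Five compound concentrations were applied to cells in 96-well plates for 48 hours; endpoints were derived by simple linear interpolation of the resulting dose-response curve. TGI: total growth inhibition.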

Assays:
Test in all cases: DTP human tumour cell line panel, 48 h
[1] = tested on: 786-0 renal
[2] = tested on: A498 renal
[3] = tested on: A549 NSCLC
[4] = tested on: ACHN renal
[5] = tested on: BT-549 breast
[6] = tested on: CAKI-1 renal
[7] = tested on: CCRF-CEM leukemia
[8] = tested on: COLO 205 colon
[9] = tested on: DU-145 prostate
[10] = tested on: EKVX NSCLC
[11] = tested on: HCC-2998 colon
[12] = tested on: HCT-116 colon
[13] = tested on: HCT-15 colon
[14] = tested on: HL-60(TB) leukemia
[15] = tested on: HOP-62 NSCLC
[16] = tested on: HOP-92 NSCLC
[17] = tested on: HS 578T breast
[18] = tested on: HT29 colon
[19] = tested on: IGROV1 ovarian
[20] = tested on: K-562 leukemia
[21] = tested on: KM12 colon
[22] = tested on: LOX IMVI melanoma
[23] = tested on: M14 melanoma
[24] = tested on: MALME-3M melanoma
[25] = tested on: MCF7 breast
[26] = tested on: MDA-MB-231 breast
[27] = tested on: MDA-MB-435
[28] = tested on: MDA-N
[29] = tested on: MOLT-4 leukemia
[30] = tested on: NCI-H226 lung
[31] = tested on: NCI-H23 lung
[32] = tested on: NCI-H460 lung
[33] = tested on: NCI-H522 lung
[34] = tested on: NCI/ADR-RES ovarian
[35] = tested on: OVCAR-3 ovarian
[36] = tested on: OVCAR-4 ovarian
[37] = tested on: OVCAR-5 ovarian
[38] = tested on: OVCAR-8 ovarian
[39] = tested on: PC-3 prostate
[40] = tested on: RPMI-8226 leukemia
[41] = tested on: RXF 393 renal
[42] = tested on: SF-268 CNS
[43] = tested on: SF-295 CNS
[44] = tested on: SF-539 CNS
[45] = tested on: SK-MEL-2 melanoma
[46] = tested on: SK-MEL-28 melanoma
[47] = tested on: SK-MEL-5 melanoma
[48] = tested on: SK-OV-3 ovarian
[49] = tested on: SN12C renal
[50] = tested on: SNB-19 CNS
[51] = tested on: SNB-75 CNS
[52] = tested on: SR leukemia
[53] = tested on: SW-620 colon
[54] = tested on: T-47D breast
[55] = tested on: TK-10 renal
[56] = tested on: U251 CNS
[57] = tested on: UACC-257 melanoma
[58] = tested on: UACC-62 melanoma
[59] = tested on: UO-31 renal
[60] = tested on: DLD-1 colon
[61] = tested on: DMS 114 small cell lung
[62] = tested on: DMS 273 small cell lung
[63] = tested on: HOP-18 NSCLC
[64] = tested on: KM20L2 colon
[65] = tested on: LXFL 529 NSCLC
[66] = tested on: M19-MEL melanoma
[67] = tested on: SNB-78 CNS
[68] = tested on: XF 498 CNS

For `C[N+](C)(C)CCCCCc1c2nc(c(CCCCC[N+](C)(C)C)c3ccc([nH]3)c(CCCCC[N+](C)(C)C)c3ccc([nH]3)c(CCCCC[N+](C)(C)C)c3nc1C=C3)C=C2`, the TGI [1] was > 100 µM, the TGI [2] was > 100 µM and the TGI [3] was > 100 µM. For the same compound, the TGI [4] was > 100 µM, the TGI [5] was > 100 µM and the TGI [6] was > 100 µM. For the same compound, the TGI [7] was > 100 µM, the TGI [8] was > 100 µM and the TGI [9] was > 100 µM. The TGI [10] was > 100 µM, the TGI [11] was > 100 µM and the TGI [12] was > 100 µM. The TGI [13] was > 100 µM, the TGI [14] was > 100 µM and the TGI [15] was > 100 µM. The TGI [16] was > 100 µM, the TGI [17] was > 100 µM and the TGI [18] was > 100 µM. The TGI [19] was > 100 µM, the TGI [20] was > 100 µM and the TGI [21] was > 100 µM. For the same compound, the TGI [22] was > 100 µM, the TGI [23] was > 100 µM and the TGI [24] was > 100 µM. The TGI [25] was > 100 µM, the TGI [26] was > 100 µM and the TGI [27] was > 100 µM. The TGI [28] was > 100 µM, the TGI [29] was > 100 µM and the TGI [30] was > 100 µM. For the same compound, the TGI [31] was > 100 µM, the TGI [32] was > 100 µM and the TGI [33] was > 100 µM. For the same compound, the TGI [34] was > 100 µM, the TGI [35] was > 100 µM and the TGI [36] was > 100 µM. The TGI [37] was > 100 µM, the TGI [38] was > 100 µM and the TGI [39] was > 100 µM. The TGI [40] was > 100 µM, the TGI [41] was 7.32 µM and the TGI [42] was > 100 µM. For the same compound, the TGI [43] was > 100 µM, the TGI [44] was > 100 µM and the TGI [45] was > 100 µM. The TGI [46] was > 100 µM, the TGI [47] was > 100 µM and the TGI [48] was > 100 µM. For the same compound, the TGI [49] was > 100 µM, the TGI [50] was > 100 µM and the TGI [51] was > 100 µM. For the same compound, the TGI [52] was > 100 µM, the TGI [53] was > 100 µM and the TGI [54] was > 100 µM. For the same compound, the TGI [55] was > 100 µM, the TGI [56] was > 100 µM and the TGI [57] was > 100 µM. The TGI [58] was > 100 µM and the TGI [59] was > 100 µM.
In the case of `OC(Cn1cncn1)(Cn1cncn1)c1ccc(Cl)cc1Cl`, the TGI [1] was > 100 µM, the TGI [2] was > 100 µM and the TGI [3] was > 100 µM. The TGI [4] was > 100 µM, the TGI [6] was > 100 µM and the TGI [7] was > 100 µM. The TGI [8] was > 100 µM, the TGI [60] was > 100 µM and the TGI [61] was > 100 µM. For the same compound, the TGI [62] was > 100 µM, the TGI [12] was > 100 µM and the TGI [13] was > 100 µM. The TGI [14] was > 100 µM, the TGI [63] was > 100 µM and the TGI [15] was > 100 µM. The TGI [16] was > 100 µM, the TGI [18] was > 100 µM and the TGI [19] was > 100 µM. For the same compound, the TGI [20] was > 100 µM, the TGI [21] was > 100 µM and the TGI [64] was > 100 µM. For the same compound, the TGI [22] was > 100 µM, the TGI [65] was > 100 µM and the TGI [23] was > 100 µM. For the same compound, the TGI [66] was > 100 µM, the TGI [24] was > 100 µM and the TGI [29] was > 100 µM. The TGI [30] was > 100 µM, the TGI [31] was > 100 µM and the TGI [32] was > 100 µM. The TGI [33] was > 100 µM, the TGI [35] was > 100 µM and the TGI [36] was > 100 µM. The TGI [37] was > 100 µM, the TGI [38] was > 100 µM and the TGI [40] was > 100 µM. The TGI [41] was > 100 µM, the TGI [42] was > 100 µM and the TGI [43] was > 100 µM. The TGI [44] was > 100 µM, the TGI [45] was > 100 µM and the TGI [46] was > 100 µM. The TGI [47] was > 100 µM, the TGI [48] was > 100 µM and the TGI [49] was > 100 µM. For the same compound, the TGI [51] was > 100 µM, the TGI [67] was > 100 µM and the TGI [52] was > 100 µM. For the same compound, the TGI [53] was > 100 µM, the TGI [55] was > 100 µM and the TGI [56] was > 100 µM. For the same compound, the TGI [57] was > 100 µM, the TGI [58] was > 100 µM and the TGI [59] was > 100 µM.
For `COc1ccc2c(c1)CCC(CN1CCN(CCOC(c3ccc(F)cc3)c3ccc(F)cc3)CC1)=C2`, the TGI [1] was 27.2 µM, the TGI [2] was 48.1 µM and the TGI [3] was > 100 µM. The TGI [4] was > 100 µM, the TGI [5] was 35.6 µM and the TGI [6] was > 100 µM. The TGI [7] was > 100 µM, the TGI [8] was 10.4 µM and the TGI [9] was 49.2 µM. For the same compound, the TGI [10] was 29.6 µM, the TGI [11] was 19 µM and the TGI [12] was 21.2 µM. The TGI [13] was 57.8 µM, the TGI [14] was 30.3 µM and the TGI [15] was > 100 µM. For the same compound, the TGI [16] was 42 µM, the TGI [17] was 50.7 µM and the TGI [18] was 32.4 µM. For the same compound, the TGI [19] was > 100 µM, the TGI [20] was > 100 µM and the TGI [21] was > 100 µM. For the same compound, the TGI [22] was 30.3 µM, the TGI [23] was 27.4 µM and the TGI [24] was 27.9 µM. It also gave a TGI [25] of 71.9 µM, a TGI [26] of 31.8 µM and a TGI [27] of 68.9 µM. For the same compound, the TGI [28] was 47.2 µM, the TGI [29] was 48.7 µM and the TGI [30] was 30.6 µM. The TGI [31] was 38.2 µM, the TGI [32] was 34.2 µM and the TGI [33] was 27.8 µM. The TGI [34] was 38.4 µM, the TGI [35] was 50.6 µM and the TGI [36] was > 100 µM. The TGI [37] was 97.4 µM, the TGI [38] was 63.2 µM and the TGI [39] was > 100 µM. For the same compound, the TGI [40] was 36.9 µM, the TGI [41] was 26.8 µM and the TGI [42] was > 100 µM. It also gave a TGI [43] of 87.2 µM, a TGI [44] of 42.3 µM and a TGI [45] of 33.3 µM. The TGI [46] was 77.1 µM, the TGI [47] was 18.5 µM and the TGI [48] was > 100 µM. The TGI [49] was 26.3 µM, the TGI [50] was > 100 µM and the TGI [51] was > 100 µM. The TGI [52] was 27.7 µM, the TGI [53] was > 100 µM and the TGI [54] was > 100 µM. The TGI [55] was 44.4 µM, the TGI [56] was 42.9 µM and the TGI [57] was 28.1 µM. For the same compound, the TGI [58] was 49 µM.
Work on `O=C(/C=C/c1ccccc1F)C(c1ccccc1)c1ccccc1` yielded a TGI [1] of 5.8 µM, a TGI [3] of 17.4 µM and a TGI [4] of 7.66 µM. For the same compound, the TGI [6] was 17.8 µM, the TGI [7] was 6.32 µM and the TGI [60] was 12.7 µM. The TGI [62] was 38.1 µM, the TGI [10] was 24.4 µM and the TGI [12] was 6.4 µM. For the same compound, the TGI [13] was 23.8 µM, the TGI [14] was 11.8 µM and the TGI [16] was 8.72 µM. For the same compound, the TGI [18] was 11.5 µM, the TGI [19] was 30.7 µM and the TGI [20] was 9.74 µM. It also gave a TGI [21] of 15 µM, a TGI [64] of 15.6 µM and a TGI [22] of 3.2 µM. For the same compound, the TGI [65] was 12 µM, the TGI [23] was 6.81 µM and the TGI [24] was 23.7 µM. It also gave a TGI [29] of 6.6 µM, a TGI [30] of 25.3 µM and a TGI [33] of 8.29 µM. For the same compound, the TGI [35] was 15.2 µM, the TGI [40] was > 100 µM and the TGI [42] was 11.3 µM. The TGI [43] was 5.91 µM, the TGI [44] was 5.48 µM and the TGI [45] was 6.15 µM. For the same compound, the TGI [46] was 6.84 µM, the TGI [48] was 8.47 µM and the TGI [49] was 15.2 µM. It also gave a TGI [50] of 5.46 µM, a TGI [51] of 19.2 µM and a TGI [67] of 34.8 µM. For the same compound, the TGI [52] was 41.9 µM, the TGI [53] was 11.5 µM and the TGI [55] was 14.6 µM. The TGI [56] was 13 µM, the TGI [57] was 17.7 µM and the TGI [58] was 4.56 µM. It also gave a TGI [59] of 25.2 µM and a TGI [68] of 3.56 µM.
